Among the data in patent publication US9249145B2, “Heterocyclic derivatives of pyrazol-4-yl-pyrrolo[2,3-d]pyrimidines as janus kinase inhibitors” (Incyte Holdings Corporation, priority 2009, dated 2016) are IC50 values, retold here.

Assay [1] addresses T1, human JAK1 (a.a. 837-1142) (Homo sapiens, UniProt P23458).
T1 construct: The catalytic domains of human JAK1 (a.a. 837-1142); His tag (N); made in house; host or cells: insect cells (baculovirus)
Briefly: In vitro JAK kinase assay (HTRF, phosphorylation of biotinylated peptide), JAK1. Format: biochemical. The procedure: (§1) Compounds herein were tested for inhibitory activity of JAK targets according to the following in vitro assay described in Park et al., Analytical Biochemistry 1999, 269, 94-104. The catalytic domains of human JAK1 (a.a. 837-1142), Jak2 (a.a. 828-1132) and Jak3 (a.a. 781-1124) with an N-terminal His tag were expressed using baculovirus in insect cells and purified. The catalytic activity of JAK1, JAK2 or JAK3 was assayed by measuring the phosphorylation of a biotinylated peptide. The phosphorylated peptide was detected by homogenous time resolved fluorescence (HTRF). IC50s of compounds were measured for each kinase in the 40 microL reactions that contain the enzyme, ATP and 500 nM peptide in 50 mM Tris (pH 7.8) buffer with 100 mM NaCl, 5 mM DTT, and 0.1 mg/mL (0.01%) BSA. The ATP concentration in the reactions was 90 μM for Jak1, 30 μM for Jak2 and 3 μM for Jak3 for Km conditions. For the 1 mM IC50 measurements, ATP concentration in the reactions was 1 mM. Reactions were carried out at room temperature for 1 hr and then stopped with 20 μL 45 mM EDTA, 300 nM SA-APC, 6 nM Eu-Py20 in assay buffer (Perkin Elmer, Boston, Mass.). Binding to the Europium labeled antibody took place for 40 minutes and HTRF signal was measured on a Fusion plate reader (Perkin Elmer, Boston, Mass.). See Tables 1, 2, 3, and 4 for data related to compounds of the invention.

The target in assay [2] is T2, Jak2 (a.a. 828-1132) (Homo sapiens, UniProt O60674).
T2 construct: Jak2 (a.a. 828-1132); His tag (N); made in house; host or cells: insect cells (baculovirus)
T2 sequence (O60674 828-1132): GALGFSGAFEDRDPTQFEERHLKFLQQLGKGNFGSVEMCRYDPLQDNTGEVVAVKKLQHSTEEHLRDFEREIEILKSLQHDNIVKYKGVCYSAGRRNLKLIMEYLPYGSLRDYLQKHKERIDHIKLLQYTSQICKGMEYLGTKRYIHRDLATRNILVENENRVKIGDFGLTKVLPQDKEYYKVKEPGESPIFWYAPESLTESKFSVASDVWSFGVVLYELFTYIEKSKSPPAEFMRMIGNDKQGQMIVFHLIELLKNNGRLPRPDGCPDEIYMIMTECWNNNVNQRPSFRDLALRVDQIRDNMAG
Briefly: In vitro JAK kinase assay (HTRF, phosphorylation of biotinylated peptide), JAK2. It counts as biochemical. Here is the method:
as §1

Where [3] appears, read: 1 mM ATP, Examples 92-162, read-out: JAK1 IC50 (nM) @ 1 mM ATP.
The mark [4] stands for this setting: 1 mM ATP, Examples 92-162, read-out: JAK2 IC50 (nM) @ 1 mM ATP.
Where [5] appears, read: 1 mM ATP, Examples 1-11, read-out: IC50 (nM) @ 1 mM ATP JAK1.
Setting [6] is: Km ATP (90 μM for Jak1), Examples 1-11, read-out: IC50 (nM) @ Km ATP JAK1.
Setting [7] is: 1 mM ATP, Examples 1-11, read-out: IC50 (nM) @ 1 mM ATP JAK2.
Where [8] appears, read: Km ATP (30 μM for Jak2), Examples 1-11, read-out: IC50 (nM) @ Km ATP JAK2.
[9] abbreviates: 1 mM ATP, Examples 12-91, read-out: JAK1 IC50 (nM) @ 1 mM ATP.
Setting [10] is: 1 mM ATP, Examples 12-91, read-out: JAK2 IC50 (nM) @ 1 mM ATP.

Counter-ions that a name gives are not always drawn. Like-named read-outs stand apart in the source and are kept apart here.

T1 sequence (P23458 849-1154): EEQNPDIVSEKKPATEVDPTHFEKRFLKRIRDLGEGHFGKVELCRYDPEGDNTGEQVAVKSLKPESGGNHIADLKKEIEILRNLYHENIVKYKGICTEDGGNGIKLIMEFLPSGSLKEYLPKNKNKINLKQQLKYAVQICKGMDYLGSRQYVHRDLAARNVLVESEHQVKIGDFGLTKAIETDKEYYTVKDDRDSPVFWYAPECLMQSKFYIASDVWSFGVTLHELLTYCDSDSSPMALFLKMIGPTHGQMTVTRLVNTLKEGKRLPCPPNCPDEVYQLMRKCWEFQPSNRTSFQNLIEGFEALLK

Consider `N#CCC(CN1CCN(C(=O)c2ccc(C#N)cc2F)CC1C(F)F)n1cc(-c2ncnc3[nH]ccc23)cn1` (single isomer, unassigned) [Example 159—peak 2, 4-{[4-{3-cyano-2-[4-(7H-pyrrolo[2,3-d]pyrimidin-4-yl)-1H-pyrazol-1-yl]propyl}-3-(difluoromethyl)piperazin-1-yl]carbonyl}-3-fluorobenzonitrile], for which the IC50 in assay [1] (setting [3]) and in assay [2] (setting [4]) was 50 to 100 nM in each case.
For `N#CCC(CN1CCN(C(=O)c2ccc(C#N)cc2F)CC1C(F)F)n1cc(-c2ncnc3[nH]ccc23)cn1` (single isomer, unassigned) [Example 159—peak 3, 4-{[4-{3-cyano-2-[4-(7H-pyrrolo[2,3-d]pyrimidin-4-yl)-1H-pyrazol-1-yl]propyl}-3-(difluoromethyl)piperazin-1-yl]carbonyl}-3-fluorobenzonitrile], the results for the IC50 in assay [1] (setting [3]) and in assay [2] (setting [4]) were less than 20 nM and 20 to 50 nM, respectively.
Consider `CS(=O)(=O)N1CCN(CC(CC#N)n2cc(-c3ncnc4[nH]ccc34)cn2)CC1` (stereo not shown) [Example 1, 4-[4-(methylsulfonyl)piperazin-1-yl]-3-[4-(7H-pyrrolo[2,3-d]pyrimidin-4-yl)-1H-pyrazol-1-yl]butanenitrile], for which the IC50 is less than 10 nM in assay [1] (setting [5]), less than 10 nM in assay [1] (setting [6]), 10 to 20 nM in assay [2] (setting [7]) and less than 10 nM in assay [2] (setting [8]).
For the molecule `N#CCC(CN1CCN(C(=O)c2ccc(C#N)cc2)CC1)n1cc(-c2ncnc3[nH]ccc23)cn1` (stereo not shown) [Example 2, 4-[(4-{3-cyano-2-[4-(7H-pyrrolo[2,3-d]pyrimidin-4-yl)-1H-pyrazol-1-yl]propyl}piperazin-1-yl)carbonyl]benzonitrile], the IC50 is less than 10 nM in assay [1] (setting [5]), less than 10 nM in assay [1] (setting [6]), more than 20 nM in assay [2] (setting [7]) and 10 to 20 nM in assay [2] (setting [8]).
For the molecule `N#CCC(CN1CCN(C(=O)c2cc(F)cc(F)c2)CC1)n1cc(-c2ncnc3[nH]ccc23)cn1` (stereo not shown) [Example 3, 4-[4-(3,5-difluorobenzoyl)piperazin-1-yl]-3-[4-(7H-pyrrolo[2,3-d]pyrimidin-4-yl)-1H-pyrazol-1-yl]butanenitrile], the IC50 in assay [1] (setting [5]) is 10 to 20 nM; in assay [1] (setting [6]), less than 10 nM; in assay [2] (setting [7]), less than 10 nM; in assay [2] (setting [8]) it was less than 10 nM.
Consider `Cn1ccc(S(=O)(=O)N2CCN(CC(CC#N)n3cc(-c4ncnc5[nH]ccc45)cn3)CC2)n1` (stereo not shown) [Example 4, 4-{4-[(1-methyl-1H-pyrazol-3-yl)sulfonyl]piperazin-1-yl}-3-[4-(7H-pyrrolo[2,3-d]pyrimidin-4-yl)-1H-pyrazol-1-yl]butanenitrile], for which the IC50 in assay [1] (setting [5]), in assay [1] (setting [6]), in assay [2] (setting [7]) and in assay [2] (setting [8]) was less than 10 nM each time.
As to `N#CCC(CC1CCN(S(=O)(=O)C2CC2)CC1)n1cc(-c2ncnc3[nH]ccc23)cn1` (stereo not shown) [Example 5, 4-[1-(cyclopropylsulfonyl)piperidin-4-yl]-3-[4-(7H-pyrrolo[2,3-d]pyrimidin-4-yl)-1H-pyrazol-1-yl]butanenitrile], the IC50 in assay [1] (setting [6]), in assay [2] (setting [7]) and in assay [2] (setting [8]) was less than 10 nM throughout.
In the case of `N#CCC(CC1CCN(C(=O)c2ccc(F)cc2F)CC1)n1cc(-c2ncnc3[nH]ccc23)cn1` (stereo not shown) [Example 6, 4-[1-(2,4-difluorobenzoyl)piperidin-4-yl]-3-[4-(7H-pyrrolo[2,3-d]pyrimidin-4-yl)-1H-pyrazol-1-yl]butanenitrile], the IC50 in assay [1] (setting [6]) and in assay [2] (setting [8]) was less than 10 nM each time.
For `Cn1ccc(S(=O)(=O)N2CCC(CC(CC#N)n3cc(-c4ncnc5[nH]ccc45)cn3)CC2)n1` (stereo not shown) [Example 7, 4-{1-[(1-methyl-1H-pyrazol-3-yl)sulfonyl]piperidin-4-yl}-3-[4-(7H-pyrrolo[2,3-d]pyrimidin-4-yl)-1H-pyrazol-1-yl]butanenitrile], the IC50 in assay [1] (setting [5]), in assay [1] (setting [6]), in assay [2] (setting [7]) and in assay [2] (setting [8]) was less than 10 nM in each case.
On to `N#CCC(CC1CCN(C(=O)c2ccc(F)cc2)CC1)n1cc(-c2ncnc3[nH]ccc23)cn1` (stereo not shown) [Example 8, 4-[1-(4-fluorobenzoyl)piperidin-4-yl]-3-[4-(7H-pyrrolo[2,3-d]pyrimidin-4-yl)-1H-pyrazol-1-yl]butanenitrile], for which the IC50 in assay [1] (setting [6]), in assay [2] (setting [7]) and in assay [2] (setting [8]) was less than 10 nM in each case.
Take `CC(CN1CCN(S(=O)(=O)c2ccn(C)n2)CC1)n1cc(-c2ncnc3[nH]ccc23)cn1` (stereo not shown) [Example 9, 4-[1-(1-methyl-2-{4-[(1-methyl-1H-pyrazol-3-yl)sulfonyl]piperazin-1-yl}ethyl)-1H-pyrazol-4-yl]-7H-pyrrolo[2,3-d]pyrimidine, phosphoric acid salt]: the IC50 in assay [1] (setting [5]) is less than 10 nM; in assay [2] (setting [7]) it was more than 20 nM.
The corresponding values for `CC(CN1CCN(S(=O)(=O)c2ccn(C)n2)CC1)n1cc(-c2ncnc3[nH]ccc23)cn1` (stereo not shown) [Example 11, 4-[1-(1-methyl-2-{4-[(1-methyl-1H-pyrazol-3-yl)sulfonyl]piperazin-1-yl}ethyl)-1H-pyrazol-4-yl]-7H-pyrrolo[2,3-d]pyrimidine bis(phosphate) Salt] are less than 10 nM and more than 20 nM.
For `N#CCC(CN1CCN(C(=O)c2ccc(C(F)F)cc2F)CC1)n1cc(-c2ncnc3[nH]ccc23)cn1` (stereo not shown) [Example 14, 4-{4-[4-(difluoromethyl)-2-fluorobenzoyl]piperazin-1-yl}-3-[4-(7H-pyrrolo[2,3-d]pyrimidin-4-yl)-1H-pyrazol-1-yl]butanenitrile], the IC50 in assay [1] (setting [9]) was less than 10 nM; in assay [2] (setting [10]) it was 10 to 50 nM.
As for `N#CCC(CN1CCN(C(=O)c2c(F)cc(C#N)cc2F)CC1)n1cc(-c2ncnc3[nH]ccc23)cn1` (stereo not shown) [Example 15, 4-[(4-{3-cyano-2-[4-(7H-pyrrolo[2,3-d]pyrimidin-4-yl)-1H-pyrazol-1-yl]propyl}piperazin-1-yl)carbonyl]-3,5-difluorobenzonitrile phosphate Salt], the figures for the IC50 in assay [1] (setting [9]) and in assay [2] (setting [10]) were less than 10 nM and 50 to 100 nM, respectively.
The corresponding values for `N#CCC(CN1CCN(C(=O)c2ncc(Cl)cc2F)CC1)n1cc(-c2ncnc3[nH]ccc23)cn1` (stereo not shown) [Example 16, 4-{4-[(5-chloro-3-fluoropyridin-2-yl)carbonyl]piperazin-1-yl}-3-[4-(7H-pyrrolo[2,3-d]pyrimidin-4-yl)-1H-pyrazol-1-yl]butanenitrile] are less than 10 nM and less than 10 nM.
The corresponding values for `N#CCC(CN1CCN(C(=O)c2ncc(C#N)cc2F)CC1)n1cc(-c2ncnc3[nH]ccc23)cn1` (stereo not shown) [Example 17, 6-[(4-{3-cyano-2-[4-(7H-pyrrolo[2,3-d]pyrimidin-4-yl)-1H-pyrazol-1-yl]propyl}piperazin-1-yl)carbonyl]-5-fluoronicotinonitrile] are 10 to 50 nM and more than 100 nM.
As to `COc1ccc(C(=O)N2CCN(CC(CC#N)n3cc(-c4ncnc5[nH]ccc45)cn3)CC2)cc1F` (stereo not shown) [Example 18, 4-[4-(3-fluoro-4-methoxybenzoyl)piperazin-1-yl]-3-[4-(7H-pyrrolo[2,3-d]pyrimidin-4-yl)-1H-pyrazol-1-yl]butanenitrile phosphate Salt], the IC50 in assay [1] (setting [9]) lay in the range of 10 to 50 nM; in assay [2] (setting [10]), 50 to 100 nM.
The corresponding values for `N#CCC(CN1CCN(C(=O)c2ncc(C(F)(F)F)cc2F)CC1)n1cc(-c2ncnc3[nH]ccc23)cn1` (stereo not shown) [Example 19, 4-(4-{[3-fluoro-5-(trifluoromethyl)pyridin-2-yl]carbonyl}piperazin-1-yl)-3-[4-(7H-pyrrolo[2,3-d]pyrimidin-4-yl)-1H-pyrazol-1-yl]butanenitrile] are 10 to 50 nM and more than 100 nM.
Consider `N#CCC(CN1CCN(C(=O)c2ccc(C#N)cn2)CC1)n1cc(-c2ncnc3[nH]ccc23)cn1` (stereo not shown) [Example 20, 6-[(4-{3-cyano-2-[4-(7H-pyrrolo[2,3-d]pyrimidin-4-yl)-1H-pyrazol-1-yl]propyl}piperazin-1-yl)carbonyl]nicotinonitrile], for which the IC50 in assay [1] (setting [9]) was 10 to 50 nM; in assay [2] (setting [10]) it was more than 100 nM.
For `N#CCC(CN1CCN(C(=O)c2ccc(F)cn2)CC1)n1cc(-c2ncnc3[nH]ccc23)cn1` (stereo not shown) [Example 21, 4-{4-[(5-fluoropyridin-2-yl)carbonyl]piperazin-1-yl}-3-[4-(7H-pyrrolo[2,3-d]pyrimidin-4-yl)-1H-pyrazol-1-yl]butanenitrile trifluoroacetate Salt] the same measures were 10 to 50 nM and 50 to 100 nM.
